In one data set the target is mouse GPR40 receptor. More on the design: method as in data on file, AstraZeneca. As to conditions: mouse GPR40 overexpressing HEK293 cells, IP-One Tb HTRF; ref data on file, AstraZeneca; cited from earlier work. On the technique in general: Time-resolved FRET reads energy transfer from a long-lived donor to a nearby acceptor.
Details of data set [1]: method as in NCT01609582. As to conditions: oral dosing of 50 mg daily, individuals with Type 2 diabetes with cardiovascular risk factors, phase 3; ref NCT01609582; cited from earlier work.
Data set [2] concerns the target T1, FFAR1 (Rattus norvegicus, UniProt Q8K3T4).
T1 construct: 50–100 mg INS-1 xenografts were homogenized using a Polytron tissue homogenizer; from tissue; host or cells: INS-1 (rat insulinoma) xenograft tumours grown subcutaneously in Balbc nu/nu mice, homogenate
Put plainly: In vitro radioligand binding in INS-1 xenograft tissue homogenate. As to conditions: for off-target (non-displaceable) binding: 2 nM [3H]AZ1 or [3H]AZ2, 4 nM [3H]TAK-875, 10 µM unlabeled ligand for non-specific binding; for specific bound radiolabeled ligand (FFAR1 density): 2 nM radiolabeled ligand. Here is the method: Rat insulinoma cell line INS-1 xenografts, explanted from immunodeficient mice postmortem, were used as a model of beta cells. Briefly, approximately 2 million INS-1 cells were injected subcutaneously in the right flank of Balbc nu/nu mice. Tumor growth was monitored by palpation, and when tumor diameter was 10 mm, the animals were euthanized and the INS-1 tumor explanted.
(§1) Isolated endocrine (75–95% islet purity) and exocrine tissues were homogenized in ice-cold 0.32 M sucrose by hand using a Dounce glass homogenizer to a final concentration of 6 mg/ml. 50–100 mg INS-1 xenografts were homogenized using a Polytron tissue homogenizer (Polytron® PT 3000, Kinematica AG, Littau-Luzern, Switzerland) in ice-cold 0.32 M sucrose at a concentration of 6 mg/ml and then by hand using a Dounce glass homogenizer. Protein concentration was determined using Bio-Rad Protein Assay (Bio-Rad Laboratories, Hercules, CA) with bovine serum albumin as standard. Aliquots of the homogenates were stored at −80 °C until used.
(§2) One milligram of homogenized endocrine and exocrine tissue and 2 mg insulinoma tissue was incubated for 2 h at room temperature with 2 nM [^3H]AZ1 or 2 nM [^3H]AZ2 and PBS in a final incubation volume of 1 ml. Two milligram insulinoma tissue was incubated for 2 h at room temperature with 4 nM [^3H]TAK-875 and 50 mM TRIS (pH 7.4) in a final incubation volume of 1 ml. All three ligands were dissolved in ethanol. 10 µM of unlabeled AZ1 or TAK-875 was added for determination of non-specific binding. The samples were filtered using a Brandel M-48 cell harvester with Whatman GF/C filter (presoaked with PBS or 50 mM TRIS) and washed four times with 3 ml PBS or 50 mM TRIS (room temperature). Filters were put into scintillation vials, dried for 30 min before adding 10 ml Ultima Gold scintillation fluid (Perkin Elmer, Waltham, MA). The filters were shaken for 60 min and then counted in a β-counter (Packard Scintillator Tri-Carb 2100TR). The K d and B max values for [^3H]AZ1 binding were determined using concentrations of the tritiated ligand from 1 to 20 nM. All assay concentrations were replicated in triplicate, both total binding and non-specific binding.
(§3) The specific binding for each concentration of radiolabeled ligand was calculated by subtracting the non-specific binding (average of three replicates) from the total binding (average of three replicates), and expressed as fmol or pmol/mg protein. The specific binding data were analyzed with curve-fitting software (GraphPad Prism version 5.04) to obtain K d and B max values.

The target in data set [3] is T2, FFAR1 (Homo sapiens, UniProt O14842). As to the kind of experiment: In vitro radioligand binding and saturation binding in human exocrine pancreatic tissue homogenate. As to conditions: for receptor specific binding: human pancreatic exocrine tissue, 2 nM labeled ligand. Set-up: Isolated endocrine (75–95% islet purity) and exocrine tissues were homogenized in ice-cold 0.32 M sucrose; from tissue; host or cells: human exocrine pancreatic tissue, homogenate. Here is the method:
(§4) Isolated pancreatic islets and exocrine tissue were obtained within the Nordic network for Clinical Islet Transplantation laboratory in Uppsala, Sweden. The use of human tissue was approved by the Uppsala Ethical Review Board (#2011/473, #Ups 02-577).
as §1, §2, §3

Data set [4] concerns the target T2, FFAR1. As to the kind of experiment: In vitro radioligand binding and saturation binding in human islets of Langerhans homogenate. Set-up: Isolated endocrine (75–95% islet purity) and exocrine tissues were homogenized in ice-cold 0.32 M sucrose; from tissue; host or cells: human isolated pancreatic islets (75–95% purity), homogenate. As to conditions: for islet-to-exocrine ratio: human islets vs human exocrine tissue; for FFAR1 density by specific binding: isolated human islets of Langerhans. As for the experimental part:
as §4, §1, §2, §3

Where [5] appears, read: human exocrine tissue, representative saturation binding experiment (Fig. 5b).
[6] abbreviates: human islets, representative saturation binding experiment (Fig. 5a).

The structures appear in SMILES notation. Entries after “also recorded” stand apart in the source; their conditions may differ.

T2 sequence (O14842 whole entry): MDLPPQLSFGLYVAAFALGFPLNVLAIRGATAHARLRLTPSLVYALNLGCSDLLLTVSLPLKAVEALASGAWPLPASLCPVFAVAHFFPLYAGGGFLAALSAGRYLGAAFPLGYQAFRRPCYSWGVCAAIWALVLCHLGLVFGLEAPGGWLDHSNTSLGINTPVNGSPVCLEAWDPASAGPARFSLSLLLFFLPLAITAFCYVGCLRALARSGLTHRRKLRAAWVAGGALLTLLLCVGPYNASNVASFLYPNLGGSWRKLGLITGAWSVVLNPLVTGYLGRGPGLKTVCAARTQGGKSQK
T1 sequence (Q8K3T4 whole entry): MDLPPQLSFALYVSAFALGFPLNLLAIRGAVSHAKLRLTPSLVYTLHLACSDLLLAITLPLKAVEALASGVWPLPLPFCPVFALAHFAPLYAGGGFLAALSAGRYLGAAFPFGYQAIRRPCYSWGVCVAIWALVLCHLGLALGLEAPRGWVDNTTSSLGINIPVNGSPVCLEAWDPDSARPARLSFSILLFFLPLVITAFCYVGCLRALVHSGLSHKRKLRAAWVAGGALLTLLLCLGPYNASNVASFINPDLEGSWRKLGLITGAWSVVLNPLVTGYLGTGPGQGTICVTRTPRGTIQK

The term EC50 denotes the midpoint of the concentration-response curve. Take `Cc1cc(OCCCS(C)(=O)=O)cc(C)c1-c1cccc(COc2ccc3c(c2)OC[C@H]3CC(=O)O)c1` [TAK-875, fasiglifam]: the EC50 at mouse GPR40 receptor is greater than 37500 nM. Further, in data set [1], the side effects entry is “suspected hepatic toxic side effects”.

For `[3H]c1cc2c(c([3H])c1OCc1cccc(-c3c(C)cc(OCCCS(C)(=O)=O)c([3H])c3C)c1)OC[C@H]2CC(=O)O` [[^3H]TAK-875, reference compound], the “off-target (non-displaceable) binding” value at FFAR1 [2] was “high non-specific off-target binding; also recorded: most off-target binding”. For the same compound, the “measurement of FFAR1 density” value on FFAR1 [2] (4 nM [3H]TAK-875) is given as “severely underestimated”.

In general, Kd refers to the equilibrium constant for the complex coming apart. Low readings indicate tighter binding, high ones weaker binding. Consider `[3H]c1cc([3H])c(OCc2nc(-n3cc(C)cn3)nc(N3CCOCC3)c2[3H])cc1F` [[^3H]AZ1], for which, on FFAR1 [2], the “off-target (non-displaceable) binding” value is on record as “decreased; also recorded: least”. Besides, at FFAR1 [2], the “specific bound radiolabeled ligand (FFAR1 density)” value stood at 132 fmol/mg protein. Besides, the specific binding result on FFAR1 [2] (incubation dose 2 nM) is reported as “approximately 50%”. For the same compound, the values for the Bmax at FFAR1 [3] (setting [5]) and at FFAR1 [4] (setting [6]) were 15.8 pmol/mg protein and 6.3 pmol/mg protein, respectively. Besides, the Kd at FFAR1 [3] (setting [5]) stood at 26.4 nM; on FFAR1 [3] (human exocrine tissue, saturation binding 1 to 20 nM, n = 5, mean ± SEM), 19.7 ± 8.4 nM; on FFAR1 [4] (setting [6]), 15.8 nM; on FFAR1 [4] (human islets, saturation binding 1 to 20 nM, n = 3, mean ± SEM) it was 10.6 ± 1.5 nM. Also, the B max stood at 13.6 ± 2.5 pmol/mg protein at FFAR1 [3] (human exocrine tissue, saturation binding, n = 5, mean ± SEM) and 7.0 ± 2.0 pmol/mg protein at FFAR1 [4] (human islets, saturation binding, n = 3, mean ± SEM). Further, the receptor specific binding entry on FFAR1 [3] is given as “below 1000 fmol/mg protein”. Also, at FFAR1 [4] (2 nM labeled ligand), the “higher FFAR1 binding in human islets compared to human exocrine tissue” value is 30%. The “non-specific binding in different pancreatic compartments” value on FFAR1 [4] (human islets vs exocrine tissue) is on record as “little difference”. In addition, the islet-to-exocrine ratio on FFAR1 [4] (2 nM labeled ligand) is 1.3. Also, at FFAR1 [4] (2 nM labeled ligand), the “FFAR1 density by specific binding” value is on record as “approximately 1150 fmol/mg protein”.

As for `[3H]c1cc([3H])c(OCc2nc(-n3cc(C)cn3)nc(N3CCOCC3)c2[3H])cc1Cl` [[^3H]AZ2], on FFAR1 [2], the “off-target (non-displaceable) binding” value is listed as “decreased” and the “specific bound radiolabeled ligand (FFAR1 density)” value is listed as 177 fmol/mg protein. The receptor specific binding result at FFAR1 [3] was “below 1000 fmol/mg protein”. On FFAR1 [4] (2 nM labeled ligand), the islet-to-exocrine ratio was determined as 1.65 and the “FFAR1 density by specific binding” value is on record as “approximately 1600 fmol/mg protein”.

(Values after article PMC5486603, “Toward molecular imaging of the free fatty acid receptor 1” (Acta Diabetologica, 2017).)
